In patent US11672814B2, “NGNA compositions and methods of use” (priority 2008, dated 2023):
Where two headings read alike, the source gives them in different places.

Legend:
[1] = tested on: Influenza B virus B/Malaysia/2506/2004; format: cell-based; conditions: 10 minutes, MDCK
HSV-1, SC-16 = experiment: Virucidal assay, HSV-1 titrated on Vero cells (CPE readout); format: cell-based, Herpes Simplex Virus type 1; conditions: 10 minutes; for Sample titer: control virus titer 6.25
HRV-16 = experiment: Virucidal assay, Rhinovirus titrated on Wi-38 cells (CPE readout); format: cell-based, Human Rhinovirus; conditions: 10 minutes
Feline Calicivirus (FCV) = experiment: Virucidal assay, Norovirus surrogate virus titrated on CRFK cells (CPE readout); format: cell-based; conditions: 10 minutes

`O=C(CO)N[C@H]1[C@H]([C@H](O)[C@H](O)CO)O[C@](O)(C(=O)O)C[C@@H]1O` [NGNA, n-glycolylneuraminic acid] gave a Virus reduction ([1]; NGNA 10 nM) of 0.00%, a Virus reduction ([1]; NGNA 10 μM) of 0.00% and a Virus reduction ([1]; NGNA 10 mM) of 99.00%. The Virus reduction (HSV-1, SC-16; NGNA 10 nM) was 0.00%, the Sample titer (HSV-1, SC-16; NGNA 10 nM) was 7.00 log10 TCID50/ml and the Virus reduction (HSV-1, SC-16; NGNA 10 μM) was 0.00%. The Sample titer (HSV-1, SC-16; NGNA 10 μM) was 6.25 log10 TCID50/ml, the Virus reduction (HSV-1, SC-16; NGNA 10 mM) was 99.98% and the Sample titer (HSV-1, SC-16; NGNA 10 mM) was 2.50 log10 TCID50/ml. The Virus reduction (HRV-16; NGNA 10 nM) was 90.00%, the Sample titer (HRV-16; NGNA 10 nM, control virus titer 4.50) was 3.50 log10 TCID50/ml and the Virus reduction (HRV-16; NGNA 10 μM) was 90.00%. It also gave a Sample titer (HRV-16; NGNA 10 μM, control virus titer 4.50) of 3.50 log10 TCID50/ml, a Virus reduction (HRV-16; NGNA 10 mM) of 99.44% and a Sample titer (HRV-16; NGNA 10 mM, control virus titer 4.75) of 2.50 log10 TCID50/ml. It also gave a Virus reduction (Feline Calicivirus (FCV); NGNA 10 nM) of 0.00%, a Sample titer (Feline Calicivirus (FCV); NGNA 10 nM, control virus titer 5.50) of 5.50 log10 TCID50/ml and a Virus reduction (Feline Calicivirus (FCV); NGNA 10 μM) of 0.00%. For the same compound, the Sample titer (Feline Calicivirus (FCV); NGNA 10 μM, control virus titer 5.50) was 5.50 log10 TCID50/ml, the Virus reduction (Feline Calicivirus (FCV); NGNA 10 mM) was 82.21% and the Sample titer (Feline Calicivirus (FCV); NGNA 10 mM, control virus titer 5.25) was 4.50 log10 TCID50/ml.
